{"source": "paper PMC8280143", "about": "“A novel dephosphorylation targeting chimera selectively promoting tau removal in tauopathies” (Signal Transduction and Targeted Therapy, 2021)", "key": {"[1]": {"system": "human tau (hTau)", "assay": "Western blotting of tau in primary neurons with hTau overexpression in the presence of MG132", "format": "cell-based", "protocol": "Primary hippocampal neurons were prepared from E12–E15 days SD rat embryos. Briefly, pregnant rats were acutely executed, hippocampus was dissected on ice and gently minced in DME/F12 (Hyclone) then suspended in 0.125% (vol/vol) trypsin solution at 37 °C for 20 min. Enzymatic activity was stopped by fetal bovine serum. Neurons were initially kept in 10% FBS-containing DME/F12 for 4–6 h, and subsequently cultured in Neurobasal (Hyclone) with 2% B27, 1% glutamax and 1% penicillin–streptomycin (Thermo Fisher Scientific) in dishes pre-coated with 100 μg/mL poly-D-lysine. Serum was gradually removed by replacing half of the medium for each time within the following 2 days. Especially, to inhibit the proteasome-dependent proteolysis, the cultured hippocampal neurons were treated with 5 μM MG132 for 5 h before harvest.\n(§1) Cultured cells or hippocampus tissues were collected on ice, and homogenized with RIPA lysis buffer containing 50 mM Tris-HCl, 100 mM NaCl, 1% Triton X-100, 5 mM EDTA, and 1:100 PMSF, and then centrifuged at 12,000 × g for 20 min. The supernatant was collected for the analysis of soluble proteins. In some experiments, the pellets were further incubated with 8% SDS buffer at 37 °C and then ultrasound for 60 times to reach a complete resuspension for the analysis of insoluble tau. Protein concentration was measured through BCA assays (Thermo Fisher). Equal amount of protein from each sample were separated in SDS-PAGE gels, and then transferred onto nitrocellulose or 0.22 μm polyvinylidene fluoride membranes (Merck Millipore). The membranes were blocked with 5% BSA, and incubated in turn with primary and horseradish peroxidase-conjugated secondary antibodies: pS199-Tau (44734G, Invitrogen, 1:2000), pT205-Tau (11108-1, Signalway, 1:2000), pS396-Tau (11102, Signalway, 1:2000), pS404-Tau (11112, Signalway, 1:2000), AT8 (MN1020, Thermo Fisher, 1:1000), Tau5 (ab80579, Abcam, 1:1000), Tau46 (T9450, Sigma, 1:1000), PP2A-Bα (4953, Cell signaling, 1:1000), Phospho-Ser/Thr (ab17464, Abcam1:1000), Ubiquitin (ab7254, Abcam, 1:1000), MAP2 (AB5622, Millipore, 1:2000), hTau-N368 (a generous gift from Prof. Keqiang Ye, Emory University School of Medicine, 1:1000), DEPTAC (developed by Daian Biotechnology, Wuhan, China, 1:500), β-actin (ab6276, Abcam, 1:2000). HRP-conjugated goat anti-rabbit IgG (A0208, Beyotime, 1:3000), HRP-conjugated goat anti-mouse IgG (A0216, Beyotime, 1:3000). Blots were visualized using ECL luminol reagent (P0018FS, Beyotime), and quantified using ImageJ software."}, "[2]": {"system": "neurons", "assay": "Neuron penetrability in vivo", "parameters": "species or system mouse", "conditions": "Supplementary Fig. S1a; 10 mM FITC-labeled or unlabeled-DEPTAC, C57BL/6 mice", "protocol": "(§2) For 2-month male C57BL/6 mice, 10 mM FITC-labeled or unlabeled-DEPTAC were directly injected through the tail vein or lateral ventricle for the evaluation of BBB-penetrability. For 9-month 3×Tg AD mice or Tau368 (20–30 g body weight), unlabeled-DEPTAC (5 mM, 1 μL for each time) was delivered for once into the lateral ventricle through direct stereotaxic injection, or repeatedly administrated through guiding cannulas (RWD, Shenzhen, China) implanted into the lateral ventricle once every 3 days for a consecutive month to test its dephosphorylation efficiency. Mice were restricted in a custom designed device and stayed awake during drug administration, and sacrificed at 24 h post the single or last DEPTAC administration."}, "[3]": {"system": "human tau", "assay": "Fluorescence polarization competing assay, tau", "format": "binding", "conditions": "2.5 μM tau, 0.1 μM FITC-labeled DEPTAC; 37 °C, 30 min", "protocol": "Purified human tau and PP2A-Bα (PPP2R1A) were obtained from AtaGenix (Wuhan, China), and concentrated using ultrafiltration tubes (Beyotime). In basic binding assays, tau or PP2A-Bα was aliquoted into serial dilutions with a buffer containing 20 mM Tris-HCl, 150 mM NaCl, and 0.5 mM 1,4-Dithiothreitol (pH 7.4), and incubated with 0.1 μM FITC-labeled DEPTAC, FITC-labeled control peptide and FITC (9:1 vol/vol), respectively, in a black 384-well plates (Corning) under 37 °C for 30 min. In competition binding assays, a mixture of 2.5 μM tau or PP2A-Bα and 0.1 μM FITC-labeled DEPTAC were incubated with increasing amounts of unlabeled-DEPTAC under 37 °C for 30 min. Fluorescence intensity was measured by a Biotek Synergy 2 microplate reader with the wavelengths of 480 nm (60) (Ex)/560 nm (40) (Em). The polarization measurements were corrected for background contributions to the measured intensity by subtracting the parallel and perpendicular intensity readings by the vehicle-only wells from the intensity readings for each data point. Fluorescence polarization (P) was calculated by the formula P = (I║ − I┴) / (I║ + I┴), where I║ was the intensity of emitted light polarized parallel to the excitation light, and I┴ was the intensity of emitted light polarized perpendicular to the excitation light."}, "[4]": {"system": "endogenous mouse tau", "assay": "Hippocampal endogenous mouse tau in NW-administrated Tau368 mice", "format": "in vivo", "conditions": "30 μg total protein", "protocol": "Mice weighting 20–30 g were anesthetized with 1% pentobarbital sodium (35 mg/kg), and fixed in a stereotaxic instrument (RWD). The scalp was sterilized with iodophors and 75% ethanol, and incised along the skull midline. Holes were drilled. Adeno-associated virus or DEPTAC was injected into the dorsal DG (posterior 1.9 mm, lateral ±1.1 mm from the bregma, ventral −2.0 from the skull) or lateral ventricle (posterior 0.22 mm, lateral ±1.0 mm from the bregma, ventral −2.5 from the skull), respectively, using an automatic microinjection system (World Precision Instruments, USA) at a rate of 0.05 μL/min. The needle syringe was left in place for 5 min before withdrawal. The skin was sutured and sterilized with iodophors. Mice were placed on thermos tank for analepsia.\nas §2, §1"}, "[5]": {"conditions": "5 μM MG132 for 5 h before harvest, *p < 0.05, n = 3 cell wells"}, "[6]": {"conditions": "NW Tau368 mice (no dox), n = 3–4"}}, "note": "Entries after “also recorded” stand apart in the source; their conditions may differ."}
{"substance": "(1) YQQYQDATADEQG, originates from the porcine β-tubulin 422–434 for recognizing and binding tau proteins.[5],[6] (2) GSGS, a linker for increasing the flexibility of the peptide.[15] (3) KKVAVVRTPPKSP, for recruiting PP2A-Bα,[16] and (4) RRRRRRRR [DEPTAC, DEPhosphorylation TArgeting Chimera; 38 amino acid residues, C185H314N72O56]", "values": [{"measurement": "efficiency of tau dephosphorylation in the presence of MG132", "setting": "[1]; 5 μM MG132, compared with absence of MG132, n = 3 cell wells", "result": "reduced efficiency; also recorded: less efficiency"}, {"measurement": "reduction of total tau (Tau5 and Tau46) in the presence of MG132", "setting": "[1]; 5 μM MG132 for 5 h before harvest", "result": "abolished"}, {"measurement": "tau dephosphorylation at AT8 epitope in the presence of MG132", "setting": "[1]; [5]", "result": "still significant"}, {"measurement": "tau dephosphorylation at pT205 in the presence of MG132", "setting": "[1]; [5]", "result": "still significant"}, {"measurement": "neuron penetrability in vivo", "setting": "[2]", "result": "high neuron penetrability"}, {"measurement": "reversal of FITC-DEPTAC/tau polarization by increased amount of unlabeled-DEPTAC", "setting": "[3]", "result": "both were reversed"}, {"measurement": "endogenous mouse tau phosphorylation at Ser199", "setting": "[4]; [6]", "result": "limited effect"}, {"measurement": "endogenous mouse tau phosphorylation at Ser396", "setting": "[4]; [6]", "result": "significantly downregulate"}, {"measurement": "endogenous mouse tau phosphorylation at Ser404", "setting": "[4]; [6]", "result": "significantly downregulate"}, {"measurement": "endogenous mouse tau phosphorylation at Thr205", "setting": "[4]; [6]", "result": "significantly downregulate"}, {"measurement": "endogenous mouse tau, AT8 epitope", "setting": "[4]; [6]", "result": "limited effect"}, {"measurement": "endogenous mouse total tau", "setting": "[4]; [6]", "result": "limited effect"}, {"measurement": "efficiency of DEPTAC on mouse tau", "setting": "[4]; NW Tau368 mice, overall, compared with dox group", "result": "relatively limited"}]}
